Results from patent US20230417738A1, “Mass Spectrometric Determination of Cell Toxicity” (Bruker Daltonics GmbH & Co. KG, priority 2022, published 2023).

Test system: cells of the human continuous cell line A549
Assay type: cell-based
Conditions: 24 h
From the text: The mass spectrometer 101 used was a non-spatial-resolution MALDI-ToF. Also, the matrix 29 was not true-to-position applied. Thus, the mass spectra 20 represent sum spectra of an entire sample spot 16 and have not been generated according to the invention. In addition, the mass spectra 20 are not spatially resolved. It is intended here, among other things, to clarify the cell-specific mass spectrometric signals 40, the cell-specific mass spectrometric signatures 41, the non-cell-specific mass spectrometric signals 55 and a possible determination of reference values. In particular, the mass spectrum 20 in FIG. 11 (b) is only an approximate example here, since a small residual number of animal cells 23, which were already present before the cultivation step S2 (cell seed), can generate largely weak cell-specific mass spectrometric signals 40. […] The animal cells 23 are cells of the continuous human cell line A549. The complex culture medium DMEN with 10% fetal calf serum (FCS) was used as culture medium. […]
The animal cells 23 are also cells of the human continuous cell line A549. […] Since this example is a sum mass spectrum of the entire sample spot 16 not according to the invention, sporadic weak cell-specific mass spectrometric signals 40 may be detected in this example, which are largely absent when using a spatial resolution mass spectrometer 1. […]

CCCCCCCCCCCCCC[N+](C)(C)C.[Cl-] [tetradecyltrimethylammonium chloride]
proliferation of the animal cells in the presence of the cytotoxic factor: no proliferation of the animal cells 23 occurred
